This data set has as its system CPT1L mRNA. As to the kind of experiment: CPT1L mRNA in stably transfected AtT20 cells (northern blot). It is filed as cell-based. The following applies: AtT20 cells expressing CPT1L-Ribo; normalized to β-actin. From the text:
Potent anorexic drugs such as fatty acid synthase (FAS) inhibitors increase the levels of malonyl-CoA, which is derived from the carboxylation of acetyl-CoA by the enzyme acetyl-CoA carboxylase (ACC). High levels of malonyl-CoA in turn inhibit CPT1-dependent oxidation of long-chain fatty acyl-CoAs (LC-CoAs). Similarly, the ICV administration of exogenous fatty acids (LCFA) directly increases the cellular levels of LC-CoA. In either case the resulting increase in intracellular LC-CoA concentration leads to inhibition of feeding behavior. […] LEFT: A probe specific for the liver isoform of CPT1 (CPT1L) detected a ˜4.3 Kb band in the liver (L) and in hypothalamus (H), but not in hind limb muscle (M). RIGHT: Hybridization with a muscle-specific CPT1 probe (CPT1M) detected a ˜3 Kb band in […] muscle (M), but not in hypothalamus. Each lane contained 1.5 μg of mRNA. […] About 200 stable clones were selected for neomycin resistance and analyzed by Northern blot. […] Data are expressed as % of control after normalization with β-actin expression. […] Levels of LC-CoAs were measured by HPLC in liver and skeletal muscle tissues of rats infused IV with vehicle (▪) or CPT1 inhibitors (□). […]
Quantitation of CPT1 and neuropeptides mRNA by Northern and real-time PCR. […]

The values below come from patent US7705016B2, “Regulation of food intake by modulation of long-chain fatty acyl-CoA levels in the hypothalamus” (Albert Einstein College of Medicine of Yeshiva University, priority 2003, dated 2010).

“CPT1L-Ribo: plasmid (pTarget, CMV promoter) expressing a hammerhead ribozyme that specifically cleaves rat CPT1L mRNA, complexed to PEI for ICV injection (DNA CUGUACCAAAGAGCUGUAGAGUCCGUGAGGACGAAACGCCGCUCACAAUG)”: the “less CPT1L mRNA than control cells transfected with vector alone” value is recorded as roughly 50%.
